Measured values from patent publication US10253039B2, “Inhibitors of bacterial DNA gyrase with efficacy against gram-negative bacteria” (priority 2014, dated 2019).
Values after ≈ are worked out from the molar mass of the structure shown. Like-named read-outs stand apart in the source and are kept apart here.

Tests used:
Assay type in all cases: cell-based
[1] = test system: Salmonella enterica subsp. enterica typhimurium; assay: MIC, 20-strain panel
Procedure: (§1) A microdilution method in 96-well plates was used and the MIC protocol established by the Clinical Laboratory Standards Institute was followed. From a growing subculture, a 1:10000 inoculum of each strain in Luria-Bertani media was prepared and aliquoted 100 μL in 4 columns of wells, except for the top row wells, which contained 200 μL of inoculum. A solution of gyramide C2 was aliquoted into 3 of the wells containing 200 μL and DMSO was added to the 4th well. The liquid in each of wells was mixed with a multi-channel pipet and 100 μL was transferred to the next well and mixed. The 2-fold dilution was continued down the 96-well plate until 100 μL was left, which was discarded. The plates were incubated at 37° C. with shaking for 16-18 hours. The MIC was determined as the lowest concentration that inhibited growth and had no turbidity by visual inspection.
(§2) Minimum inhibitory concentrations of various gyramide compounds against 20 strains of bacteria were determined using the procedure described above.

[2] = test system: Staphylococcus aureus subsp. aureus; assay: MIC, 20-strain panel; details: read-out: MIC
Procedure: as §1, §2

E. coli MG1655 = assay: MIC, 20-strain panel; details: Escherichia coli, read-out: MIC
Procedure: as §1, §2

Streptococcus pyogenes = assay: MIC, 20-strain panel
Procedure: as §1, §2

Streptococcus agalactiae = assay: MIC, 20-strain panel
Procedure: as §1, §2

[3] = test system: Staphylococcus saprophyticus subsp. saprophyticus; assay: MIC, 20-strain panel
Procedure: as §1, §2

[4] = test system: Klebsiella pneumoniae subsp. pneumoniae; assay: MIC, 20-strain panel
Procedure: as §1, §2

[5] = test system: Staphylococcus epidermidis; assay: MIC, 20-strain panel
Procedure: as §1, §2

Shigella flexneri = assay: MIC, 20-strain panel
Procedure: as §1, §2

E. coli JW5503 (deltolC) = assay: MIC, 20-strain panel; details: Escherichia coli
Procedure: as §1, §2

Edwardsiella tarda = assay: MIC, microdilution in 96-well plates
In short: (§3)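 MIC read by eye as the lowest concentration without turbidity, after 16-18 h shaking incubation at 37° C. Cells: 1:10000 inoculum from growing subculture in LB. Compound in 2-fold serial dilutions, triplicate wells, DMSO vehicle control; CLSI protocol.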

E. coli BW25113 = assay: MIC, microdilution in 96-well plates; details: Escherichia coli, read-out: MIC
In short: as §3

[6] = Salmonella enterica subsp. enterica Typhimurium
[7] = Staphylococcus aureus subsp. aureus
[8] = Klebsiella pneumoniae subsp. pneumoniae
[9] = F: Salmonella enterica subsp. enterica Typhimurium
[10] = H: Staphylococcus aureus subsp. aureus
[11] = E: Klebsiella pneumoniae subsp. pneumoniae

SMILES | MIC [1, 6] [µg/mL] | MIC [2, 7] [µg/mL] | MIC (E. coli MG1655; MG1655, E. coli MG1655) [µg/mL] | MIC (Streptococcus pyogenes) [µg/mL] | MIC (Streptococcus agalactiae) [µg/mL] | MIC [3] [µg/mL] | MIC [4, 8] [µg/mL] | MIC [5] [µg/mL] | MIC (Shigella flexneri) [µg/mL] | MIC (E. coli JW5503 (deltolC); E. coli JW5503 (deltolC)) [µg/mL] | MIC (Edwardsiella tarda) [µg/mL] | MIC (E. coli BW25113; BW25113, E. coli BW25113) [µg/mL] | MIC [1, 9] [µg/mL] | MIC [2, 10] [µg/mL] | MIC (E. coli MG1655; MG1655, A: E. coli MG1655) [µg/mL] | MIC [4, 11] [µg/mL] | MIC (Shigella flexneri; G: Shigella flexneri) [µg/mL] | MIC (E. coli JW5503 (deltolC); C: E. coli JW5503 (deltolC)) [µg/mL] | MIC (Edwardsiella tarda; D: Edwardsiella tarda) [µg/mL] | MIC (E. coli BW25113; BW25113, B: E. coli BW25113) [µg/mL]
O=S(=O)(N[C@@H]1CCN(Cc2ccc(OC3CCC3)cc2)C1)c1cccc(OC(F)(F)F)c1 [Compound 177] | > 8 | > 8 | > 8 | > 8 | > 8 | > 8 | > 8 | > 8 | > 8 | 2 (≈ 4.25 µM) | > 8 | > 8 | – | – | – | – | – | – | – | –
O=S(=O)(N[C@@H]1CCN(Cc2ccc(-c3ccccc3)cc2)C1)c1ncc[nH]1 [Compound 16] | – | – | – | > 8 | > 8 | > 8 | – | > 8 | – | – | – | – | 8 (≈ 20.9 µM) | > 8 | > 8 | > 8 | > 8 | 2 (≈ 5.23 µM) | > 8 | > 8
O=S(=O)(N[C@@H]1CCN(Cc2nc(-c3ccccc3)cs2)C1)c1cccc(OC(F)(F)F)c1 [Compound 107] | – | – | – | > 8 | > 8 | > 8 | – | > 8 | – | – | – | – | > 8 | > 8 | > 8 | > 8 | > 8 | > 8 | > 8 | > 8
N#Cc1ccc(S(=O)(=O)N[C@@H]2CCN(Cc3ccc(-c4ccccc4)cc3)C2)cn1 [Compound 160] | > 8 | > 8 | > 8 | > 8 | > 8 | > 8 | > 8 | > 8 | > 8 | > 8 | > 8 | > 8 | – | – | – | – | – | – | – | –
N#Cc1cccc(S(=O)(=O)N[C@@H]2CCN(Cc3ccc(-c4ccccc4Cl)cc3)C2)c1 [Compound 70] | – | – | – | > 8 | > 8 | > 8 | – | 8 (≈ 17.7 µM) | – | – | – | – | > 8 | > 8 | > 8 | > 8 | > 8 | 1 (≈ 2.21 µM) | > 8 | > 8
Cc1c(S(=O)(=O)N[C@@H]2CCN(Cc3ccc(OC4CC4)cc3)C2)sc2ccc(Cl)cc12 [Compound 85] | – | – | – | 8 (≈ 16.8 µM) | > 8 | > 8 | – | 4 (≈ 8.38 µM) | – | – | – | – | > 8 | ~8 (≈ 16.8 µM) | > 8 | > 8 | > 8 | ~8 (≈ 16.8 µM) | > 8 | > 8
O=C1CCCN1c1ccc(CN2CC[C@@H](NS(=O)(=O)c3cccc(C(F)(F)F)c3)C2)cc1 [Compound 99] | – | – | – | > 8 | > 8 | > 8 | – | > 8 | – | – | – | – | > 8 | > 8 | > 8 | > 8 | > 8 | 2 (≈ 4.28 µM) | > 8 | > 8
Cc1c(S(=O)(=O)N[C@@H]2CCN(Cc3ccc(OC(C)C)cc3)C2)sc2ccc(Cl)cc12 [Compound 83] | – | – | – | 8 (≈ 16.7 µM) | > 8 | > 8 | – | 8 (≈ 16.7 µM) | – | – | – | – | > 8 | ~8 (≈ 16.7 µM) | > 8 | > 8 | > 8 | 8 (≈ 16.7 µM) | > 8 | > 8
N#Cc1cc(S(=O)(=O)N[C@@H]2CCN(Cc3ccc(-c4ccccc4)cc3)C2)ccc1F [Compound 19] | – | – | – | > 8 | > 8 | > 8 | – | > 8 | – | – | – | – | 4 (≈ 9.18 µM) | > 8 | > 8 | > 8 | > 8 | 0.25 (≈ 0.574 µM) | > 8 | > 8
Cn1ccc(-c2ccc(CN3CC[C@@H](NS(=O)(=O)c4cccc(C#N)c4)C3)cc2)n1 [Compound 170] | > 8 | > 8 | > 8 | > 8 | > 8 | > 8 | > 8 | > 8 | > 8 | 2 (≈ 4.74 µM) | > 8 | > 8 | – | – | – | – | – | – | – | –
O=S(=O)(N[C@@H]1CCN(Cc2ccc(OC(F)F)cc2)C1)c1cccc(OC(F)(F)F)c1 [Compound 106] | – | – | – | > 8 | > 8 | > 8 | – | > 8 | – | – | – | – | > 8 | > 8 | > 8 | > 8 | > 8 | > 8 | > 8 | > 8
Cc1ccncc1S(=O)(=O)N[C@@H]1CCN(Cc2ccc(OC3CC3)cc2)C1 [Compound 153] | > 8 | > 8 | > 8 | > 8 | > 8 | > 8 | > 8 | > 8 | > 8 | 8 (≈ 20.6 µM) | > 8 | > 8 | – | – | – | – | – | – | – | –
O=S(=O)(N[C@@H]1CCN(Cc2ccc(-c3cccc(Cl)c3)cc2)C1)c1cccc(OC(F)(F)F)c1 [Compound 28] | – | – | – | ~8 (≈ 15.7 µM) | > 8 | > 8 | – | 2 (≈ 3.91 µM) | – | – | – | – | > 8 | > 8 | > 8 | > 8 | > 8 | > 8 | > 8 | > 8
O=S(=O)(N[C@@H]1CCN(Cc2ccc(OC3CC3)cc2)C1)c1cnc2ccsc2c1 [Compound 158] | > 8 | > 8 | > 8 | > 8 | > 8 | > 8 | > 8 | > 8 | > 8 | > 8 | > 8 | > 8 | – | – | – | – | – | – | – | –
O=S(=O)(N[C@@H]1CCN(Cc2ccc(OC3CC3)cc2)C1)c1cc(S(=O)(=O)c2ccccc2)cs1 [Compound 65] | – | – | – | > 8 | > 8 | > 8 | – | > 8 | – | – | – | – | > 8 | > 8 | > 8 | > 8 | > 8 | > 8 | > 8 | > 8
O=S(=O)(N[C@@H]1CCN(Cc2ccc(-c3ccccc3)cc2)C1)c1cnc2ccsc2c1 [Compound 111] | – | – | – | > 8 | > 8 | > 8 | – | > 8 | – | – | – | – | > 8 | > 8 | > 8 | > 8 | > 8 | > 8 | > 8 | > 8
Cc1ccc(C(F)(F)F)cc1S(=O)(=O)N[C@@H]1CCN(Cc2ccc(-c3ccccc3)cc2)C1 [Compound 182] | – | – | – | ~8 (≈ 16.9 µM) | > 8 | > 8 | – | 4 (≈ 8.43 µM) | – | – | – | – | > 8 | > 8 | > 8 | > 8 | > 8 | 4 (≈ 8.43 µM) | > 8 | > 8
Cc1c(CN2CC[C@@H](NS(=O)(=O)c3cccc(OC(F)(F)F)c3)C2)cnn1-c1ccccc1 [Compound 144] | > 8 | > 8 | > 8 | > 8 | > 8 | > 8 | > 8 | > 8 | > 8 | 8 (≈ 16.6 µM) | > 8 | > 8 | – | – | – | – | – | – | – | –
N#Cc1cccc(S(=O)(=O)N[C@@H]2CCN(Cc3ccc(N4CCCC4=O)cc3)C2)c1 [Compound 97] | – | – | – | > 8 | > 8 | > 8 | – | > 8 | – | – | – | – | > 8 | > 8 | > 8 | > 8 | > 8 | 4 (≈ 9.42 µM) | > 8 | > 8
CC(C)Oc1ccc(CN2CC[C@@H](NS(=O)(=O)c3cncc(F)c3)C2)cc1 [Compound 150] | > 8 | > 8 | > 8 | > 8 | > 8 | > 8 | > 8 | > 8 | > 8 | > 8 | > 8 | > 8 | – | – | – | – | – | – | – | –
